# Data published in PubChem BioAssay AID2060899 (Molecular Pharmacology Branch, DTP, NCI, 2025).
# Test system: 565726-208-R1-J5-PDC complex spheroids, growth inhibition
# Assay: Anticancer human tumor 565726-208-R1-J5-PDC patient-derived pancreatic adenocarcinoma cell line growth inhibition [RAS]
# Details: for IC50: curve of first compound; for viability, T/C: stronger effect = lower value
# Method in brief: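 Tumour cells grown as complex spheroids with HUVEC endothelial cells and mesenchymal stem cells, treated with RAS pathway inhibitor combinations. Each agent spans half-log steps from near clinical Cmax, or 10 microM where Cmax is unknown.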
# 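Also: spheroids exposed to compounds for seven days before readout.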
# 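For viability, T/C in this document: 100% = DMSO vehicle control viability.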
compound,measurement,setting,value
C=CC(=O)Nc1cc(Nc2nccc(-c3cn(C)c4ccccc34)n2)c(OC)cc1N(C)CCN(C)C + CCn1c(-c2cc(N3CCN(C)CC3)cnc2C(C)OC)c2c3cc(ccc31)-c1csc(n1)CC(NC(=O)C1CC1C)C(=O)N1CCCC(N1)C(=O)OCC(C)(C)C2,IC50,second compound 0.000949 µM,0.185 µM
same,IC50,second compound 0.003 µM,0.011 µM
same,IC50,second compound 0.00949 µM,< 0.00316 µM
same,IC50,second compound 0.03 µM,< 0.00316 µM
same,IC50,second compound 0.0949 µM,< 0.00316 µM
same,IC50,second compound 0.3 µM,< 0.00316 µM
same,"viability, T/C","second compound 0.000949 µM, first compound 0.00316 µM",63.2%
same,"viability, T/C","second compound 0.000949 µM, first compound 0.01 µM",62.6%
same,"viability, T/C","second compound 0.000949 µM, first compound 0.0316 µM",59.9%
same,"viability, T/C","second compound 0.000949 µM, first compound 0.1 µM",56.4%
same,"viability, T/C","second compound 0.000949 µM, first compound 0.316 µM",44.6%
same,"viability, T/C","second compound 0.000949 µM, first compound 1 µM",34.3%
same,"viability, T/C","second compound 0.003 µM, first compound 0.00316 µM",58.9%
same,"viability, T/C","second compound 0.003 µM, first compound 0.01 µM",44.3%
same,"viability, T/C","second compound 0.003 µM, first compound 0.0316 µM",49.2%
same,"viability, T/C","second compound 0.003 µM, first compound 0.1 µM",38.8%
same,"viability, T/C","second compound 0.003 µM, first compound 0.316 µM",36.1%
same,"viability, T/C","second compound 0.003 µM, first compound 1 µM",28.2%
same,"viability, T/C","second compound 0.00949 µM, first compound 0.00316 µM",43.2%
same,"viability, T/C","second compound 0.00949 µM, first compound 0.01 µM",38.3%
same,"viability, T/C","second compound 0.00949 µM, first compound 0.0316 µM",34.9%
same,"viability, T/C","second compound 0.00949 µM, first compound 0.1 µM",30.9%
same,"viability, T/C","second compound 0.00949 µM, first compound 0.316 µM",24.7%
same,"viability, T/C","second compound 0.00949 µM, first compound 1 µM",20.4%
same,"viability, T/C","second compound 0.03 µM, first compound 0.00316 µM",30.4%
same,"viability, T/C","second compound 0.03 µM, first compound 0.01 µM",30.1%
same,"viability, T/C","second compound 0.03 µM, first compound 0.0316 µM",29.6%
same,"viability, T/C","second compound 0.03 µM, first compound 0.1 µM",25.1%
same,"viability, T/C","second compound 0.03 µM, first compound 0.316 µM",19%
same,"viability, T/C","second compound 0.03 µM, first compound 1 µM",15.5%
same,"viability, T/C","second compound 0.0949 µM, first compound 0.00316 µM",28.3%
same,"viability, T/C","second compound 0.0949 µM, first compound 0.01 µM",24.6%
same,"viability, T/C","second compound 0.0949 µM, first compound 0.0316 µM",21.4%
same,"viability, T/C","second compound 0.0949 µM, first compound 0.1 µM",18.2%
same,"viability, T/C","second compound 0.0949 µM, first compound 0.316 µM",16.4%
same,"viability, T/C","second compound 0.0949 µM, first compound 1 µM",14.7%
same,"viability, T/C","second compound 0.3 µM, first compound 0.00316 µM",23.4%
same,"viability, T/C","second compound 0.3 µM, first compound 0.01 µM",21.2%
same,"viability, T/C","second compound 0.3 µM, first compound 0.0316 µM",18.8%
same,"viability, T/C","second compound 0.3 µM, first compound 0.1 µM",16.3%
same,"viability, T/C","second compound 0.3 µM, first compound 0.316 µM",15.5%
same,"viability, T/C","second compound 0.3 µM, first compound 1 µM",11.6%
CCN1CCN(Cc2ccc(Nc3ncc(F)c(-c4cc(F)c5nc(C)n(C(C)C)c5c4)n3)nc2)CC1 + C#Cc1c(F)ccc2cc(O)cc(-c3ncc4c(N5CC6CCC(C5)N6)nc(OCC56CCCN5CC(F)C6)nc4c3F)c12,IC50,second compound 0.0316 µM,> 1 µM
same,IC50,second compound 0.1 µM,> 1 µM
same,IC50,second compound 0.316 µM,> 1 µM
same,IC50,second compound 1 µM,> 1 µM
same,IC50,second compound 3.16 µM,0.0928 µM
same,IC50,second compound 10 µM,0.0612 µM
same,"viability, T/C","second compound 0.0316 µM, first compound 0.00316 µM",83.6%
same,"viability, T/C","second compound 0.0316 µM, first compound 0.01 µM",130%
same,"viability, T/C","second compound 0.0316 µM, first compound 0.0316 µM",74.6%
same,"viability, T/C","second compound 0.0316 µM, first compound 0.1 µM",79.2%
same,"viability, T/C","second compound 0.0316 µM, first compound 0.316 µM",86.8%
same,"viability, T/C","second compound 0.0316 µM, first compound 1 µM",89.1%
same,"viability, T/C","second compound 0.1 µM, first compound 0.00316 µM",109%
same,"viability, T/C","second compound 0.1 µM, first compound 0.01 µM",122%
same,"viability, T/C","second compound 0.1 µM, first compound 0.0316 µM",75.6%
same,"viability, T/C","second compound 0.1 µM, first compound 0.1 µM",66.9%
same,"viability, T/C","second compound 0.1 µM, first compound 0.316 µM",76.5%
same,"viability, T/C","second compound 0.1 µM, first compound 1 µM",101%
same,"viability, T/C","second compound 0.316 µM, first compound 0.00316 µM",116%
same,"viability, T/C","second compound 0.316 µM, first compound 0.01 µM",143%
same,"viability, T/C","second compound 0.316 µM, first compound 0.0316 µM",67.8%
same,"viability, T/C","second compound 0.316 µM, first compound 0.1 µM",64.1%
same,"viability, T/C","second compound 0.316 µM, first compound 0.316 µM",77.5%
same,"viability, T/C","second compound 0.316 µM, first compound 1 µM",82.4%
same,"viability, T/C","second compound 1 µM, first compound 0.00316 µM",127%
same,"viability, T/C","second compound 1 µM, first compound 0.01 µM",115%
same,"viability, T/C","second compound 1 µM, first compound 0.0316 µM",87%
same,"viability, T/C","second compound 1 µM, first compound 0.1 µM",61.2%
same,"viability, T/C","second compound 1 µM, first compound 0.316 µM",46.8%
same,"viability, T/C","second compound 1 µM, first compound 1 µM",72.5%
same,"viability, T/C","second compound 3.16 µM, first compound 0.00316 µM",99.1%
same,"viability, T/C","second compound 3.16 µM, first compound 0.01 µM",105%
same,"viability, T/C","second compound 3.16 µM, first compound 0.0316 µM",57.6%
same,"viability, T/C","second compound 3.16 µM, first compound 0.1 µM",56.6%
same,"viability, T/C","second compound 3.16 µM, first compound 0.316 µM",46.2%
same,"viability, T/C","second compound 3.16 µM, first compound 1 µM",45.6%
same,"viability, T/C","second compound 10 µM, first compound 0.00316 µM",87.7%
same,"viability, T/C","second compound 10 µM, first compound 0.01 µM",78.5%
same,"viability, T/C","second compound 10 µM, first compound 0.0316 µM",56.9%
same,"viability, T/C","second compound 10 µM, first compound 0.1 µM",41.4%
same,"viability, T/C","second compound 10 µM, first compound 0.316 µM",44.3%
same,"viability, T/C","second compound 10 µM, first compound 1 µM",28.9%
